Laboratory results: patent US8329645B2, “Polymyxin derivatives and uses thereof” (priority 2008, dated 2012)

Tests used:
[1] = system: three strains of A. baumannii; test: E-test sensitization by NAB7061, summary over strains; type: cell-based; details: Acinetobacter baumannii, read-out: resulting MIC values in the presence of NAB7061 (4 μg/ml)
From the text: (§1) The strains originated from ATCC (11 strains), CCUG (11 strains), and NCTC (The National Collection of Type Cultures, Colindale, U.K.; 2 strains). Eight strains (the F-strains) were purchased from Mobidiag Ltd., Helsinki, Finland.

P. vulgaris ATCC13315 = test: E-test MIC with or without NAB7061 (4 μg/ml), Mueller-Hinton agar; type: cell-based
Experimental: (§2) MICs were determined by using E-strips (Biodisk Ltd., Solna, Sweden) according to the manufacturer's instructions.
as §1

S. maltophilia ATCC17444 = test: as above; type: cell-based
Experimental: as §2, §1

A. baumannii F264 = test: E-test MIC of antibiotics on Mueller Hinton agar containing increasing concentrations of NAB739; type: cell-based, Acinetobacter baumannii
K. pneumoniae ATCC13883 = details: K. pneumoniae ATCC13883
How it was run: (§3)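 Strips carrying an antibiotic concentration gradient were placed on inoculated plates following the supplier's directions, and the MIC was then recorded.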

E. coli ATCC25922 = details: E. coli ATCC25922
How it was run: as §3

K. oxytoca ATCC13182 = test: E-test MIC with or without NAB7061 (4 μg/ml), Mueller-Hinton agar; type: cell-based, Klebsiella oxytoca
Experimental: as §2, §1

K. oxytoca CCUG51683 = test: as above; type: cell-based, Klebsiella oxytoca
Experimental: as §2, §1

P. aeruginosa ATCC27853 = test: as above; type: cell-based, Pseudomonas aeruginosa
Experimental: as §2, §1

P. aeruginosa CCUG51971 = test: as above; type: cell-based, Pseudomonas aeruginosa
Experimental: as §2, §1

K. pneumoniae F136 = test: as above; type: cell-based, Klebsiella pneumoniae
Experimental: as §2, §1

K. pneumoniae F145 = test: as above; type: cell-based, Klebsiella pneumoniae
Experimental: as §2, §1

K. pneumoniae F144 = test: as above; type: cell-based, Klebsiella pneumoniae
Experimental: as §2, §1

K. pneumoniae CCUG45421 = test: as above; type: cell-based, Klebsiella pneumoniae
Experimental: as §2, §1

Ac. baumannii F264 = test: as above; type: cell-based, Acinetobacter baumannii; details: Ac. baumannii F264
Experimental: as §2, §1

Ac. baumannii F263 = test: as above; type: cell-based, Acinetobacter baumannii; details: Ac. baumannii F263
Experimental: as §2, §1

Ac. baumannii ATCC19606 = test: as above; type: cell-based, Acinetobacter baumannii; details: Ac. baumannii ATCC19606
Experimental: as §2, §1

S. marcescens ATCC8100 = test: as above; type: cell-based, Serratia marcescens
Experimental: as §2, §1

C. freundii ATCC8090 = test: as above; type: cell-based, Citrobacter freundii
Experimental: as §2, §1

E. coli CCUG41424 = test: as above; type: cell-based, Escherichia coli
How it was run: as §3

E. coli IH3080 = test: as above; type: cell-based, Escherichia coli
How it was run: as §3

E. coli NCTC13351 = test: as above; type: cell-based, Escherichia coli
How it was run: as §3

E. coli CCUG41427 = test: as above; type: cell-based, Escherichia coli
How it was run: as §3

E. coli CCUG41429 = test: as above; type: cell-based, Escherichia coli
How it was run: as §3

E. coli CCUG41432 = test: as above; type: cell-based, Escherichia coli
How it was run: as §3

E. coli CCUG41421 = test: as above; type: cell-based, Escherichia coli
How it was run: as §3

E. coli NCTC13353 = test: as above; type: cell-based, Escherichia coli
How it was run: as §3

E. coli CCUG41422 = test: as above; type: cell-based, Escherichia coli
How it was run: as §3

E. coli CCUG41425 = test: as above; type: cell-based, Escherichia coli
How it was run: as §3

P. mirabilis ATCC29906 = test: as above; type: cell-based, Proteus mirabilis
Experimental: as §2, §1

A. baumannii ATCC19606 = test: E-test MIC of antibiotics on Mueller Hinton agar containing increasing concentrations of NAB739; type: cell-based, Acinetobacter baumannii
E. cloacae CCUG52947 = test: E-test MIC with or without NAB7061 (4 μg/ml), Mueller-Hinton agar; type: cell-based, Enterobacter cloacae
How it was run: as §3

E. cloacae F230 = test: as above; type: cell-based, Enterobacter cloacae
How it was run: as §3

E. cloacae ATCC23355 = test: as above; type: cell-based, Enterobacter cloacae
How it was run: as §3

E. cloacae F232 = test: as above; type: cell-based, Enterobacter cloacae
How it was run: as §3

P. aeruginosa ATCC 27853 = test: E-test MIC of antibiotics on Mueller Hinton agar containing increasing concentrations of NAB739; type: cell-based, Pseudomonas aeruginosa

MIC of antibiotic in the presence of 4 μg/ml of NAB 7061 (P. vulgaris ATCC13315): 24 µg/mL
MIC of antibiotic in the presence of 4 μg/ml of NAB 7061 (S. maltophilia ATCC17444): 64 µg/mL
MIC of antibiotic in the presence of NAB739 (A. baumannii F264; NAB 739 0 μg/ml): 6 µg/mL
MIC of antibiotic in the presence of NAB739 (A. baumannii F264; NAB 739 0.5 μg/ml): 0.5 µg/mL
MIC of antibiotic in the presence of NAB739 (A. baumannii F264; NAB 739 1 μg/ml): 0.125 µg/mL
MIC of antibiotic in the presence of 4 μg/ml of NAB 7061 (K. pneumoniae ATCC13883): 0.19 µg/mL
MIC of antibiotic in the presence of 4 μg/ml of NAB 7061 (E. coli ATCC25922): 0.094 to 0.125 µg/mL
MIC of antibiotic in the presence of 4 μg/ml of NAB 7061 (K. oxytoca ATCC13182): 0.25 µg/mL
MIC of antibiotic in the presence of 4 μg/ml of NAB 7061 (K. oxytoca CCUG51683): 0.19 µg/mL
MIC of antibiotic in the presence of 4 μg/ml of NAB 7061 (P. aeruginosa ATCC27853): 32 µg/mL
MIC of antibiotic in the presence of 4 μg/ml of NAB 7061 (P. aeruginosa CCUG51971): 64 µg/mL
MIC of antibiotic in the presence of 4 μg/ml of NAB 7061 (K. pneumoniae F136): 2 µg/mL
MIC of antibiotic in the presence of 4 μg/ml of NAB 7061 (K. pneumoniae F145): 0.25 µg/mL
MIC of antibiotic in the presence of 4 μg/ml of NAB 7061 (K. pneumoniae F144): 0.75 µg/mL
MIC of antibiotic in the presence of 4 μg/ml of NAB 7061 (K. pneumoniae CCUG45421): 24 µg/mL
MIC of antibiotic in the presence of 4 μg/ml of NAB 7061 (Ac. baumannii F264): 0.25 µg/mL
MIC of antibiotic in the presence of 4 μg/ml of NAB 7061 (Ac. baumannii F263): 0.38 µg/mL
MIC of antibiotic in the presence of 4 μg/ml of NAB 7061 (Ac. baumannii ATCC19606): 0.5 µg/mL
MIC of antibiotic in the presence of 4 μg/ml of NAB 7061 (S. marcescens ATCC8100): 96 µg/mL
MIC of antibiotic in the presence of 4 μg/ml of NAB 7061 (C. freundii ATCC8090): 0.125 µg/mL
MIC of antibiotic in the presence of 4 μg/ml of NAB 7061 (E. coli CCUG41424): 0.125 µg/mL
MIC of antibiotic in the presence of 4 μg/ml of NAB 7061 (E. coli IH3080): 0.047 to 0.064 µg/mL
MIC of antibiotic in the presence of 4 μg/ml of NAB 7061 (E. coli NCTC13351): 0.032 µg/mL
MIC of antibiotic in the presence of 4 μg/ml of NAB 7061 (E. coli CCUG41427): 0.064 µg/mL
MIC of antibiotic in the presence of 4 μg/ml of NAB 7061 (E. coli CCUG41429): 0.064 µg/mL
MIC of antibiotic in the presence of 4 μg/ml of NAB 7061 (E. coli CCUG41432): 0.064 µg/mL
MIC of antibiotic in the presence of 4 μg/ml of NAB 7061 (E. coli CCUG41421): 0.125 µg/mL
MIC of antibiotic in the presence of 4 μg/ml of NAB 7061 (E. coli NCTC13353): 1 µg/mL
MIC of antibiotic in the presence of 4 μg/ml of NAB 7061 (E. coli CCUG41422): 0.25 µg/mL
MIC of antibiotic in the presence of 4 μg/ml of NAB 7061 (E. coli CCUG41425): 0.047 µg/mL
MIC of antibiotic in the presence of 4 μg/ml of NAB 7061 (P. mirabilis ATCC29906): 24 µg/mL
MIC of antibiotic in the presence of NAB739 (A. baumannii ATCC19606; NAB 739 0 μg/ml): 8 µg/mL
MIC of antibiotic in the presence of NAB739 (A. baumannii ATCC19606; NAB 739 0.5 μg/ml): 0.5 µg/mL
MIC of antibiotic in the presence of NAB739 (A. baumannii ATCC19606; NAB 739 1 μg/ml): 0.094 µg/mL
MIC of antibiotic in the presence of 4 μg/ml of NAB 7061 (E. cloacae CCUG52947): 0.38 µg/mL
MIC of antibiotic in the presence of 4 μg/ml of NAB 7061 (E. cloacae F230): 0.047 µg/mL
MIC of antibiotic in the presence of 4 μg/ml of NAB 7061 (E. cloacae ATCC23355): 0.25 to 0.75 µg/mL
MIC of antibiotic in the presence of 4 μg/ml of NAB 7061 (E. cloacae F232): 0.094 µg/mL
MIC of antibiotic in the presence of NAB739 (P. aeruginosa ATCC 27853; NAB 739 0 μg/ml): 48 µg/mL
MIC of antibiotic in the presence of NAB739 (P. aeruginosa ATCC 27853; NAB 739 0.5 μg/ml): 16 µg/mL
MIC of antibiotic in the presence of NAB739 (P. aeruginosa ATCC 27853; NAB 739 1 μg/ml): 12 µg/mL
MIC of antibiotic in the presence of NAB739 (P. aeruginosa ATCC 27853; NAB 739 2 μg/ml): 3 µg/mL
MIC of antibiotic in the presence of NAB739 (P. aeruginosa ATCC 27853; NAB 739 […]): 32 µg/mL
SMILES: CC[C@H]1OC(=O)[C@H](C)[C@@H](O[C@H]2C[C@@](C)(OC)[C@@H](O)[C@H](C)O2)[C@H](C)[C@@H](O[C@@H]2O[C@H](C)C[C@H](N(C)C)[C@H]2O)[C@](C)(OC)C[C@@H](C)C(=O)[C@H](C)[C@@H](O)[C@]1(C)O [Clarithromycin]
MIC [1]: ≤ 0.5 µg/mL
